In patent US20230158057A1, “COMPOSITIONS AND METHODS FOR THE TREATMENT OF PAIN” (Duke University, priority 2020, published 2023):
“Also recorded” adds a separate entry of the source.

Tests used:
[1] = system: tumor-bearing femora; test: Bone fractures of tumor-bearing femora on d17 after LLC inoculation; assay type: in vivo, mouse; conditions: vehicle 87.5%
Procedure: Development and progression of cancer-induced osteolytic bone destruction frequently leads to bone fracture, which is an important component of SREs in patients with bone metastasis and is associated with decreased overall survival. On d17 after LLC inoculation, mice were euthanized and the tumor bearing femora were collected and the distal tumor-bearing femur where bone destruction occurs was analyzed.

[2] = system: naïve mice; test: Conditioned place preference (CPP) assay in naïve mice; conditions: i.t., morphine 2 nmol, DMXAA or ADU-S100 35 nmol
Procedure: All mice underwent 3 d of preconditioning habituation in a temperature- and humidity-controlled room under low-light conditions between 08:00-16:00 in a two compartment CPP chamber (Med Associates Inc.). The two compartments differed by both visual and tactile cues. On the 4th day, animal behavior was video-recorded using a webcam connected to a laptop computer, and animal movement was automatically tracked for 15 minutes using the ANY-Maze software (Stoelting). […] On the conditioning day(s) (day 5 for single trial; day 5-7 for repeated trials), two pairing sessions were performed, with vehicle pairing in the AM session and drug treatment (e.g., vehicle or drug) in the PM session, separated by 4 h. In the AM session, mice always received vehicle (10 μl saline, delivered via i.t. injection under isoflurane anesthesia) and were immediately placed in their preferred CPP chamber for 2 h. […] 24 h after the completion of the pairing experiments, mice were placed in the CPP test box with access to both chambers and behavior was recorded for 15 minutes and analyzed using the ANY-Maze software for chamber preference. CPP score was calculated as the inverse of the time spent in the preferred chamber according to: [post-preference (sec)—pre-preference (sec)]. Vehicle served as a negative control for these experiments, while morphine (three trials/naïve mice) or clonidine (single trial/ongoing pain) served as positive controls.

[3] = system: bone marrow-derived macrophages (BMDM); test: In vitro osteoclastogenesis from bone marrow-derived macrophages (BMDM), TRAP staining; assay type: cell-based, mouse; conditions: 30 μM, WT vs STING^gt/gt or Ifnar1^−/−
Procedure: In vitro induction of osteoclastogenesis and TRAP staining. For in vitro drug treatment, the RAW 264.7 cells were incubated with 35 ng/ml RANKL for six days. Isolated bone marrow cells were cultured overnight in α-MEM media containing 10% fetal bovine serum and 1% antibiotic-antimycotic solution. The suspended cells were collected and incubated with 20 ng/ml MCSF for 3 days to obtain bone marrow-derived macrophage (BMDM). The attached cells were further activated by 35 ng/ml RANKL and 20 ng/ml MCSF. Drug treatment was performed in tandem with RANKL. Culture medium and co-cultured reagents were changed every 3 days. After 6 or 7 days of incubation, the cells were fixed by 4% PFA and stained with warm TRAP staining solution (TRAP kit, Sigma-Aldrich, SLBW4002) for 10-30 min at 37° C.

[4] = system: IFN-α; test: IFN-α ELISA in serum and bone marrow lysate after i.p. STING agonist, LLC model; assay type: in vivo, mouse; conditions: for increase of serum levels of IFN-α: 4 h after a single i.p. injection 20 mg/kg on d3, vs vehicle; for IFN-α in bone marrow (BM) lysate: 4 h after i.p., d3
Procedure: ELISA. Mouse high-sensitivity IFN-α ELISA kit (42115-1) and IFN-β ELISA kit (42410-1) were purchased from PBL Assay Science. Mouse CTX-I ELISA kit (AC-06F1) and mouse PINP ELISA kit (AC-33F1) were purchased from Immunodiagnostic Systems. ELISA was performed using culture medium, serum, and bone marrow lysates. Serum was obtained from whole blood that was collected from a submandibular vein via facial vein puncture, coagulated for 30 minutes at room temperature, followed by centrifugation (2,000 ×g for 10 min, 4° C.) and collection of the supernatant (serum). Bone marrow was homogenized in a lysis buffer containing protease inhibitors at 4° C. for 30 minutes. ELISA was conducted in accordance with the manufacturer's instructions. A standard curve was performed for each experiment.

[5] = system: naïve mice; test: Von Frey testing of mechanical thresholds in naïve mice (WT and knockout); assay type: in vivo, mouse; conditions: naïve mice; for dose exhibiting the largest increase in paw withdrawal thresholds: i.t.; for mechanical sensory thresholds (von Frey): i.t. injection
Procedure: Reflexive-based sensory testing in mice: All behavioral testing in mice was performed in a specialized humidity- and light-controlled mouse behavior facility maintained at 21-24° C., with testing conducted between the hours of 8:00-16:00. Mice were habituated to the testing environment for at least 2 days prior to baseline testing. All tests were performed by an experimenter who was blinded to experimental conditions, including genotypes and drug treatment. For multi-day experiments using STING agonists, mice were tested in the same room at approximately the same time each day. To measure mechanical sensitivity, mice were confined to individual chambers with non-transparent borders on an elevated mesh rack, preventing mice from visualizing or interacting with one another during the testing period. Mouse hindpaws were stimulated with a series of von Frey filaments with logarithmically increasing stiffness (0.02-2.56 g, Stoelting), which was applied perpendicularly to the central plantar surface. We determined the 50% paw withdrawal threshold using the up-down method. […] To test cold sensitivity, mice were again placed on an elevated metal mesh floor in isolated chambers, and a ˜20 μl acetone drop was applied to the central plantar surface of the mouse hindpaw using a pipette.
For the experiments utilizing i.t. 2′3′-cGAMP and 3′3′-cGAMP complexed with Lipofectamine 2000 (ThermoFisher, 11668), 10 μg 2′3′-cGAMP or 3′3′-cGAMP was incubated at room temperature for 30 minutes in sterile PBS with 3 μl Lipofectamine 2000. In this case, the vehicle control was 3 μl Lipofectamine 2000 in PBS, as in a previous study which used this approach. […] For experiments utilizing rabbit anti-IFN-α or -β neutralizing antibodies, a polyclonal rabbit IgG antibody served as the control. Antibodies were utilized in vivo at 300 ng/mouse or in vitro at 300 ng/ml. Paclitaxel was administered via repeated i.p. injections every other day for 4 days at a dose of 2 mg/kg. For the whole mount DRG recordings, young mice (4-6 weeks) were administered a single 6 mg/kg dose one week prior to the experiment. All intrathecal injections were performed under brief anesthesia with 2-2.5% isoflurane. Drugs administered by intrathecal injection were preceded by shaving a small area on the back corresponding to the injection site, followed by spinal puncture using a 30-gauge needle between the L5-L6 levels to deliver a maximum of 5-10 μl into the cerebrospinal fluid. Successful intrathecal injection was always confirmed by a brisk tail-flick upon delivery. For the experiments involving intraplantar (i.pl.) injection, IFN-α was dissolved in sterile saline and administered at the concentrations indicated in the figures in a total volume of 20 μl, administered under 2-2.5% isoflurane anesthesia to minimize animal stress. For these experiments, vehicle (saline) or IFN-α were slowly and carefully expressed into the left dorsal hindpaw of anesthetized mice and allowed to perfuse the tissue for ˜20 seconds prior to removal of the needle. […] Mechanical sensory testing was done anteriorly and care was taken to avoid Von Frey filament stimulation of the injection site.

Nc1ncnc2c1ncn2[C@@H]1O[C@@H]2COP(=O)([S-])O[C@@H]3[C@H](O)[C@@H](COP([O-])(=S)O[C@H]2[C@H]1O)O[C@H]3n1cnc2c(N)ncnc21.[Na+].[Na+] (stereo partly drawn) [ADU-S100, (2′-5′)-[P(R)]-5′-O-[(R)-hydroxymercaptophosphinyl]-P-thioadenylyl-adenosine cyclic dinucleotide]
mice with distal bone fractures [1]: 0%
conditioned place preference, repeated pairing [2]: neither DMXAA nor ADU-S100 could induce place preference
osteoclast formation from BMDM [3]: could significantly inhibit osteoclast formation from BMDM from WT mice but not from STING^gt/gt or Ifnar1^−/− mice
increase of serum levels of IFN-α [4]: approximately 1000 fold
IFN-α in bone marrow (BM) lysate [4]: sharply increased
dose exhibiting the largest increase in paw withdrawal thresholds [5]: 25 µg
mechanical sensory thresholds (von Frey) [5]: induced dose-dependent antinociception

Cc1ccc2c(=O)c3cccc(CC(=O)O)c3oc2c1C [DMXAA, 2-(5,6-dimethyl-9-oxo-9H-xanthen-4-yl)acetic acid]
mice with distal bone fractures [1]: 12.5%
conditioned place preference, repeated pairing [2]: neither DMXAA nor ADU-S100 could induce place preference
osteoclast formation from BMDM [3]: could significantly inhibit osteoclast formation from BMDM from WT mice but not from STING^gt/gt or Ifnar1^−/− mice
increase of serum levels of IFN-α [4]: approximately 1000 fold
IFN-α in bone marrow (BM) lysate [4]: sharply increased
dose exhibiting the largest increase in paw withdrawal thresholds [5]: 10 µg
mechanical sensory thresholds (von Frey) [5]: induced dose-dependent antinociception; also recorded: dose-dependent increase in paw withdrawal thresholds
